Patent publication US9624249B2, “Nucleoside kinase bypass compositions and methods” (Merck Sharp & Dohme Corp., priority 2013, dated 2017)
Like-named read-outs stand apart in the source and are kept apart here.

Tests used:
[1] = test system: hepatitis virus C (HCV) genotype 1a; assay: HCV subgenomic replicon assay (RHEPTAQ), genotype 1a; format: cell-based; details: Hepatitis C virus, Table 4, genotype 1a; read-out: Replicon: EC50 (1a)
Description: (§1) Table 3 and Table 4 summarize the measured activities of these prodrugs as assessed in a subgenomic replicon assay (RHEPTAQ), against genotypes 1a, 1b and 2a.

[2] = Tox: EdU/CellCount CC50; format: cell-based
[3] = test system: hepatitis virus C (HCV) genotype 2a; assay: HCV subgenomic replicon assay (RHEPTAQ), genotype 2a; format: cell-based; details: Hepatitis C virus, Table 4, genotype 2a; read-out: Replicon: EC50 (2a)
Description: as §1

[4] = test system: hepatitis virus C (HCV) genotype 1b; assay: HCV subgenomic replicon assay (RHEPTAQ), genotype 1b; format: cell-based; details: Hepatitis C virus, Table 4, genotype 1b; read-out: Replicon: EC50 (1b)
Description: as §1

[5] = CTG LD50 (cytotoxicity)
[6] = test system: HIV-1 (H9IIIB virus); assay: Viking assay: multiple round HIV-1 infection assay in MT4-GFP cells; format: cell-based
Experimental: Assessing Antiviral Potency in a Multiple Round HIV-1 Infection Assay
The antiviral activity of the tenofovir prodrugs was assessed in a Viking assay performed as follows. HIV-1 replication was monitored using MT4-gag-GFP clone D3 (hereafter designate MT4-GFP), which are MT-4 cells modified to harbor a GFP reporter gene, the expression of which is dependent on the HIV-1 expressed proteins tat and rev. Productive infection of an MT4-GFP cell with HIV-1 results in GFP expression approximately 24 h post-infection.
MT4-GFP cells were maintained at 37° C./5% CO2/90% relative humidity in RPMI 1640 supplemented with 10% fetal bovine serum, 100 U/ml penicillin/streptomycin, and 400 μg/ml G418 to maintain the reporter gene. For infections, MT4-GFP cells were placed in the same medium lacking G418 and infected overnight with H9IIIB virus at an approximate multiplicity of infection of 0.01 in the same incubation conditions. Cells were then washed and resuspended in either RPMI 1640 containing 10% normal human serum at 1.6×10^5 cells/mL (10% NHS conditions) or in 100% normal human serum at 2×10^5 cells/mL (100% NHS conditions). Compound plates were prepared by dispensing compounds dissolved in DMSO into wells of 384 well poly D lysine-coated plates (0.2 μl/well) using an ECHO acoustic dispenser. Each compound was tested in a 10 point serial 3-fold dilution (typical final concentrations: 4.2 μM-0.21 nM). Controls included no inhibitor (DMSO only) and a combination of three antiviral agents (efavirenz, indinavir, and the integrase strand transfer inhibitor N1-ethyl-N1-((7S,10R)-2-((4-fluorobenzyl)-carbamoyl)-3-hydroxy-7-methoxy-4-oxo-4,6,7,8,9,10-hexahydropyrimido-[1,2-a]azepin-10-yl)-N2,N2-dimethyloxalamide at final concentrations of 4 μM each). Cells were added (50 μL/well) to compound plates and the infected cells were maintained at 37° C./5% CO2/90% relative humidity.
Infected cells were quantified at two time points, ˜48 h and ˜72 h post-infection, by counting the number of green cells in each well using an Acumen eX3 scanner. The increase in the number of green cells over ˜24 h period gives the reproductive ratio, R0, which is typically 5-15 and has been shown experimentally to be in logarithmic phase (data not shown) Inhibition of R0 is calculated for each well, and IC50s determined by non-linear 4-parameter curve fitting.

[7] = test system: HIV-1; details: HIV-1, PBMCs; cited from earlier work
[8] = test system: hepatitis virus C (HCV) genotype 1c; assay: HCV replicon, genotype printed as 1c; format: cell-based; details: read-out: Replicon: EC50 (1c)
[9] = test system: HCV GT1b; details: Cho et al. 2012, Table 1; cited from earlier work
[10] = test system: peripheral blood mononuclear cells (PBMCs); details: pbmc; cited from earlier work
[11] = CellCount readout, read-out: Tox: CellCount CC50
[12] = EdU readout, read-out: Tox: EdU CC50
[13] = Human immunodeficiency virus 1, read-out: Viking IP
[14] = Human immunodeficiency virus 1, inhibition of reproductive ratio R0, MT4-GFP cells infected with H9IIIB, serum condition not stated, read-out: Viking IP

| Compound | CTG LD50 [5] [µM] | IC50 [6, 13] [nM] | further results |
| --- | --- | --- | --- |
| C[C@@]1(O)[C@@H]2OP(=O)(OC3CSSC[C@@H]3OCc3ccccc3)OCC2O[C@H]1n1ccc(=O)[nH]c1=O (single isomer, unassigned) [drawing 112] |  |  | EC50 [1]: 70 nM; CC50 [2, 11]: 8500 nM; CC50 [2, 12]: 4100 nM; EC50 [3]: 90 nM; EC50 [4]: 110 nM |
| C[C@H](Cn1cnc2c(N)ncnc21)OCP(=O)(Oc1ccccc1)OC1CSSC[C@H]1OCc1ccccc1 (some centres unmarked) [Entry 14] | >8.403 | 1260 |  |
| COc1cccc(OP(=O)(CO[C@H](C)Cn2cnc3c(N)ncnc32)OC2CSSC[C@@H]2OCc2ccccc2)c1 (some centres unmarked) [Entry 13] | >8.403 | 1810 |  |
| C[C@H](Cn1cnc2c(N)ncnc21)OCP(=O)(Oc1cccc(F)c1)OC1CSSC[C@@H]1OCc1ccccc1 (some centres unmarked) [Entry 3] | >42.02 | 620 |  |
| C[C@H](Cn1cnc2c(N)ncnc21)OCP(=O)(Oc1ccccc1F)OC1CSSC[C@@H]1OCc1ccccc1 (some centres unmarked) [Entry 2] | >8.403 | 605 |  |
| C[C@H](Cn1cnc2c(N)ncnc21)OCP(=O)(Oc1cccc(Cl)c1)OC1CSSC[C@@H]1OCc1ccccc1 (some centres unmarked) [Entry 6] | >8.403 | 1880 |  |
| C[C@H](Cn1cnc2c(N)ncnc21)OCP(=O)(Oc1ccccc1Cl)OC1CSSC[C@@H]1OCc1ccccc1 (some centres unmarked) [Entry 7] | >8.403 | 1590 |  |
| C[C@H](Cn1cnc2c(N)ncnc21)OCP(=O)(O)OC1CSSC[C@H]1OCc1ccccc1 (some centres unmarked) [Entry 16] |  |  | IC50 [6, 14]: > 8400 nM |
| Cc1cccc(OP(=O)(CO[C@H](C)Cn2cnc3c(N)ncnc32)OC2CSSC[C@@H]2OCc2ccccc2)c1 (some centres unmarked) [Entry 8] | >42.02 | 1120 |  |
| COc1ccccc1OP(=O)(CO[C@H](C)Cn1cnc2c(N)ncnc21)OC1CSSC[C@@H]1OCc1ccccc1 (some centres unmarked) [Entry 12] | >39.78 | 1550 |  |
| C[C@H](Cn1cnc2c(N)ncnc21)OCP(=O)(O)O [tenofovir] |  |  | EC50 [7]: 1200 nM |
| C[C@@]1(F)[C@@H]2OP(=O)(OC3CSSC[C@@H]3OCc3ccccc3)OCC2O[C@H]1n1ccc(=O)[nH]c1=O (some centres unmarked) |  |  | EC50 [8]: 101 nM; EC50 [1]: 92 nM; CC50 [2, 11]: 85000 nM; CC50 [2, 12]: 30000 nM; EC50 [4]: 107 nM |
| C[C@@]1(O)[C@H](O)[C@@H](COP(=O)(O)OP(=O)(O)OP(=O)(O)O)O[C@H]1n1ccc(=O)[nH]c1=O [triphosphate 2′-C-Me-U] |  |  | EC50 [9]: 1320 nM |
| Cc1ccc(OP(=O)(CO[C@H](C)Cn2cnc3c(N)ncnc32)OC2CSSC[C@@H]2OCc2ccccc2)cc1 (some centres unmarked) [Entry 9] | >42.02 | 1640 |  |
| C[C@H](Cn1cnc2c(N)ncnc21)OCP(=O)(O)OC1CSSC[C@@H]1OCc1ccccc1 (some centres unmarked) [Entry 15] |  |  | IC50 [6, 14]: > 8400 nM |
| CC(Cn1cnc2c(N)ncnc21)OCP(=O)(O)OP(=O)(O)OP(=O)(O)O (stereo in doubt) [tenofovir diphosphate] |  |  | half-life in peripheral blood mononuclear cells (PBMCs) [10]: > 100 h |
| Cc1ccccc1OP(=O)(CO[C@H](C)Cn1cnc2c(N)ncnc21)OC1CSSC[C@@H]1OCc1ccccc1 (some centres unmarked) [Entry 10] | >42.02 | 2920 |  |
| C[C@@]1(O)[C@H](O)[C@@H](CO)O[C@H]1n1ccc(=O)[nH]c1=O [2′-C-Me-U, 2′-C-methyl-uridine] |  |  | EC50 [9]: 15200 nM |
| C[C@H](Cn1cnc2c(N)ncnc21)OCP(=O)(Oc1ccc(F)cc1)OC1CSSC[C@@H]1OCc1ccccc1 (some centres unmarked) [Entry 4] | >8.403 | 2000 |  |
| COc1ccc(OP(=O)(CO[C@H](C)Cn2cnc3c(N)ncnc32)OC2CSSC[C@@H]2OCc2ccccc2)cc1 (some centres unmarked) [Entry 11] | >42.02 | 2920 |  |
| C[C@H](Cn1cnc2c(N)ncnc21)OCP(=O)(Oc1ccc(Cl)cc1)OC1CSSC[C@@H]1OCc1ccccc1 (some centres unmarked) [Entry 5] | >8.403 | 1590 |  |
| C[C@H](Cn1cnc2c(N)ncnc21)OCP(=O)(Oc1ccccc1)OC1CSSC[C@@H]1OCc1ccccc1 (some centres unmarked) [Entry 1] | >8.403 | 1260 |  |
